# Measured values taken from ChEMBL document CHEMBL5050844 (2019).
# Assays:
# Type in all cases: functional, T cell line
# [1] = Induction of anti-CD3/CD28 antibodies-stimulated human T cell activation at 4 uM assessed fold increase in CD25 expression measured by ELISA assay
# [2] = Induction of anti-CD3/CD28 antibodies-stimulated human T cell activation at 0.3 uM assessed fold increase in IL-2 secretion measured by ELISA assay
# [3] = Induction of anti-CD3/CD28 antibodies-stimulated human T cell activation at 0.3 uM assessed fold increase in CD25 expression measured by ELISA assay
# [4] = Induction of anti-CD3 antibodies-stimulated human T cell activation at 8 uM assessed fold increase in CD25 expression measured by ELISA assay; further: reference of the scale not given here
# [5] = Induction of anti-CD3 antibodies-stimulated human T cell activation at 8 uM assessed fold increase in IL-2 secretion measured by ELISA assay; further: reference of the scale not given here
# [6] = Induction of anti-CD3 antibodies-stimulated human T cell activation at 1 uM assessed fold increase in IL-2 secretion measured by ELISA assay; further: reference of the scale not given here
# [7] = Induction of anti-CD3/CD28 antibodies-stimulated human T cell activation at 4 uM assessed fold increase in IL-2 secretion measured by ELISA assay
# [8] = Induction of anti-CD3/CD28 antibodies-stimulated human T cell activation at 1 uM assessed fold increase in CD25 expression measured by ELISA assay
# [9] = Induction of anti-CD3/CD28 antibodies-stimulated human T cell activation at 1 uM assessed fold increase in IL-2 secretion measured by ELISA assay
# [10] = Induction of anti-CD3 antibodies-stimulated human T cell activation at 1 uM assessed fold increase in CD25 expression measured by ELISA assay; further: reference of the scale not given here
Compound,fold change (FC) [1],fold change (FC) [2],fold change (FC) [3],fold change (FC) [4],fold change (FC) [5],fold change (FC) [6],fold change (FC) [7],fold change (FC) [8],fold change (FC) [9],fold change (FC) [10]
Cc1ccc(C(=O)Nc2cccc([C@H](C)Sc3nncn3C)c2)nc1C,1.31,1.01,<=1,0.601,>=0.201,<=0.05,2.51,1.01,2.51,<=0.6
C[C@H](Sc1nncn1C)c1cccc(N2Cc3c(cccc3C(F)(F)F)C2=O)c1,1.01,<=1,<=1,0.801,<=0.05,<=0.05,1.01,1.01,<=1,0.601
Cn1cnnc1C[C@](C)(F)c1cccc(N2Cc3c(cccc3C(F)(F)F)C2=O)c1,1.01,1.01,1.01,0.801,0.101,0.051,1.01,<=1,1.01,0.601
C[C@H](Cc1nncn1C)c1cccc(NC(=O)c2cc(C(=O)N3CC[C@](C)(O)C3)ccn2)c1,1.51,<=1,1.51,<=0.6,<=0.05,<=0.05,<=1,1.31,<=1,<=0.6
Cc1conc1CC(C)c1cccc(N2Cc3c(cccc3C(F)(F)F)C2=O)c1 (stereo not given),1.01,1.01,1.01,0.801,0.051,<=0.05,1.01,1.01,1.01,0.601
"Cn1cnnc1C(F)[C@](C)(F)c1cccc(N2Cc3c(cccc3C(F)(F)F)C2=O)c1 (single isomer, unassigned)",1.01,<=1,<=1,0.601,0.051,<=0.05,<=1,<=1,<=1,<=0.6
Cn1cnnc1C(F)(F)[C@](C)(F)c1cccc(NC(=O)c2nc3c(C(F)(F)F)cccc3[nH]2)c1,1.01,1.01,1.01,0.601,0.151,0.051,2.51,1.01,1.01,0.601
Cn1cnnc1C[C@]1(c2cccc(N3Cc4c(cccc4C(F)(F)F)C3=O)c2)C[C@H](CO)C1,1.51,1.01,1.31,>=1.001,>=0.201,0.101,5,1.51,2.51,0.801
C[C@H](Cc1nncn1C)c1cc(N[C@@H](C)CO)nc(N2Cc3c(cccc3C(F)(F)F)C2=O)c1,1.01,1.01,1.01,>=1.001,0.151,0.051,2.51,1.01,1.01,0.601
Cc1ccc(C(=O)Nc2cc([C@H](C)Sc3nncn3C)ccn2)nc1C1CC1,1.01,2.51,<=1,<=0.6,<=0.05,<=0.05,5,<=1,2.51,<=0.6
C[C@@H](c1cccc(N2Cc3c(cccc3C(F)(F)F)C2=O)c1)[C@H](F)c1nncn1C (relative stereo),1.01,2.51,1.01,0.801,>=0.201,0.101,2.51,1.01,2.51,0.601
Cn1cnnc1C(F)(F)C(C)(F)c1cccc(N2Cc3c(cccc3C(F)(F)F)C2=O)c1 (racemic),1.01,<=1,1.01,0.601,>=0.201,>=0.201,1.01,1.01,<=1,0.601
Cc1nc(C(=O)Nc2cccc([C@H](C)Sc3nncn3C)c2)ccc1Cl,1.01,2.51,<=1,0.801,0.051,<=0.05,>=7.5,1.01,5,<=0.6
Cc1ccc(C(=O)Nc2cccc(C(C)C(F)(F)c3nncn3C)c2)nc1C1CC1 (stereo not given),1.01,1.01,<=1,>=1.001,0.101,0.051,2.51,<=1,1.01,0.801
Cc1[nH]cnc1CC(C)c1cccc(N2Cc3c(cccc3C(F)(F)F)C2=O)c1 (stereo not given),1.01,<=1,<=1,<=0.6,0.101,0.101,<=1,<=1,<=1,<=0.6
Cc1cc(C(=O)Nc2cc([C@H](C)Sc3nncn3C)ccn2)nc(C(F)(F)F)c1,1.01,1.01,<=1,0.801,0.051,<=0.05,1.01,<=1,1.01,<=0.6
C[C@@H](c1cccc(N2Cc3c(cccc3C(F)(F)F)C2=O)c1)C(F)(F)c1nncn1C,1.01,1.01,1.01,0.801,0.101,<=0.05,2.51,1.01,1.01,0.601
